Reference: US10662195B2, “Protein kinase conjugates and inhibitors” (Celgene Avilomics Research, Inc., priority 2009, dated 2020)
pIC50: −log10 of the molar value.

Assays:
KDR = KDR (Homo sapiens, UniProt P35968); experiment: Mass spectral analysis of tryptic digest of KDR after incubation with compound; format: binding; details: KDR 40 pmols, compound 395 pmols, 3 hrs, MALDI
Protocol: KDR kinase (40 pmols) was incubated with II-2 (395 pmols) for 3 hrs at 10× access prior to tryptic digestion. Iodoacetamide was used as the alkylating agent after compound incubation. For tryptic digests a 5 ul aliquot (6.7 pmols) was diluted with 10 ul of 0.1% TFA prior to micro C18 Zip Tipping directly onto the MALDI target using alpha cyano-4-hydroxy cinnamic acid as the matrix (5 mg/ml in 0.1% TFA:Acetonitrile 50:50).
For tryptic digests the instrument was set in Reflectron mode with a pulsed extraction setting of 1800. Calibration was done using the Laser Biolabs Pep Mix standard (1046.54, 1296.69, 1672.92, 2093.09, 2465.20). For CID/PSD analysis the peptide was selected using cursors to set ion gate timing and fragmentation occurred at a laser power about 20% higher and He was used as the collision gas for CID. Calibration for fragments was done using the P14R fragmentation calibration for the Curved field Reflectron.

BTK = BTK (Homo sapiens, UniProt Q06187); experiment: Omnia assay for potency assessment against BTK; format: biochemical; details: 30 min pre-incubation; read-out: IC50_APP BTK
Sequence of BTK (Q06187 whole entry): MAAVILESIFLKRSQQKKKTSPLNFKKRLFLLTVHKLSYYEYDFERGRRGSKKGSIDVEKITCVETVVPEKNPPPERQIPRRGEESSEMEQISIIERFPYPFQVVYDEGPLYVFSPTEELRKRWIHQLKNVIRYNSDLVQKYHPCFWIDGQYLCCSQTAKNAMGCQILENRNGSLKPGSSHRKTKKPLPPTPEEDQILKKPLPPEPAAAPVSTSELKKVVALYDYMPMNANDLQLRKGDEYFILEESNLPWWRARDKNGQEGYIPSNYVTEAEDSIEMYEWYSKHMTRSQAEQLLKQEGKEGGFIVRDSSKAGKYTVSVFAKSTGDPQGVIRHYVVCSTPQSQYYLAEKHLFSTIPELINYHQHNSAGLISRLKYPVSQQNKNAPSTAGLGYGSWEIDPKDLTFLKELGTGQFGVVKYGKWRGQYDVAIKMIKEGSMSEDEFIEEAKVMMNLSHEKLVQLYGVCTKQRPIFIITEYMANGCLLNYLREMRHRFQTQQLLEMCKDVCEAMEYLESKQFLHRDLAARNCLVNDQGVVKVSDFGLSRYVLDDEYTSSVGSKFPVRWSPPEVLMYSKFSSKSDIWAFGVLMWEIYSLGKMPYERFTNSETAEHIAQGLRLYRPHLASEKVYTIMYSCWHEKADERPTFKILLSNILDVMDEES
Excerpt: B. Omnia Assay Protocol for Potency Assessment Against BTK
Below describes the protocol using EGFR-WT and EGFR-T790M/L858R and the protocol BTK-optimized reagent conditions then follow.
The mechanics of the assay platform are best described by the vendor (Invitrogen, Carlsbad, Calif.) on their website at the following URL: http://www.invitrogen.com/content.cfm?pageid=11338 or http://www.invitrogen.com/site/us/en/home/Products-and-Services/Applications/Drug-Discovery/Target-and-Lead-Identification-and-Validation/KinaseBiology/KB-Misc/Biochemical-Assays/Omnia-Kinase-Assays.html.
Briefly, 10× stocks of EGFR-WT (PV3872) from Invitrogen and EGFR-T790M/L858R (40350) from BPS Bioscience, San Diego, Calif., 1.13×ATP (AS001A) and appropriate Tyr-Sox conjugated peptide substrates (KCZ1001) were prepared in 1× kinase reaction buffer consisting of 20 mM Tris, pH 7.5, 5 mM MgCl2, 1 mM EGTA, 5 mM β-glycerophosphate, 5% glycerol (10× stock, KB002A) and 0.2 mM DTT (DS001A). 5 μL of each enzyme were pre-incubated in a Corning (#3574) 384-well, white, non-binding surface microtiter plate (Corning, N.Y.) for 30 min. at 27° C. with a 0.5 μL volume of 50% DMSO and serially diluted compounds prepared in 50% DMSO. Kinase reactions were started with the addition of 45 μL of the ATP/Tyr-Sox peptide substrate mix and monitored every 30-90 seconds for 60 minutes at λex360/λem485 in a Synergy^4 plate reader from BioTek (Winooski, Vt.). At the conclusion of each assay, progress curves from each well were examined for linear reaction kinetics and fit statistics (R^2, 95% confidence interval, absolute sum of squares). Initial velocity (0 minutes to ˜30 minutes) from each reaction was determined from the slope of a plot of relative fluorescence units vs time (minutes) and then plotted against inhibitor concentration to estimate IC50 from log [Inhibitor] vs Response, Variable Slope model in GraphPad Prism from GraphPad Software (San Diego, Calif.).
The modified BTK-optimized reagent conditions for the above protocol are:
[BTK]=5 nM, [ATP]=[…], [Y5-Sox]=[…] (ATP KMapp˜[…]).
The reported IC50_APP and IC50 values are in units of nM.

Sequence of KDR (P35968 20-1356): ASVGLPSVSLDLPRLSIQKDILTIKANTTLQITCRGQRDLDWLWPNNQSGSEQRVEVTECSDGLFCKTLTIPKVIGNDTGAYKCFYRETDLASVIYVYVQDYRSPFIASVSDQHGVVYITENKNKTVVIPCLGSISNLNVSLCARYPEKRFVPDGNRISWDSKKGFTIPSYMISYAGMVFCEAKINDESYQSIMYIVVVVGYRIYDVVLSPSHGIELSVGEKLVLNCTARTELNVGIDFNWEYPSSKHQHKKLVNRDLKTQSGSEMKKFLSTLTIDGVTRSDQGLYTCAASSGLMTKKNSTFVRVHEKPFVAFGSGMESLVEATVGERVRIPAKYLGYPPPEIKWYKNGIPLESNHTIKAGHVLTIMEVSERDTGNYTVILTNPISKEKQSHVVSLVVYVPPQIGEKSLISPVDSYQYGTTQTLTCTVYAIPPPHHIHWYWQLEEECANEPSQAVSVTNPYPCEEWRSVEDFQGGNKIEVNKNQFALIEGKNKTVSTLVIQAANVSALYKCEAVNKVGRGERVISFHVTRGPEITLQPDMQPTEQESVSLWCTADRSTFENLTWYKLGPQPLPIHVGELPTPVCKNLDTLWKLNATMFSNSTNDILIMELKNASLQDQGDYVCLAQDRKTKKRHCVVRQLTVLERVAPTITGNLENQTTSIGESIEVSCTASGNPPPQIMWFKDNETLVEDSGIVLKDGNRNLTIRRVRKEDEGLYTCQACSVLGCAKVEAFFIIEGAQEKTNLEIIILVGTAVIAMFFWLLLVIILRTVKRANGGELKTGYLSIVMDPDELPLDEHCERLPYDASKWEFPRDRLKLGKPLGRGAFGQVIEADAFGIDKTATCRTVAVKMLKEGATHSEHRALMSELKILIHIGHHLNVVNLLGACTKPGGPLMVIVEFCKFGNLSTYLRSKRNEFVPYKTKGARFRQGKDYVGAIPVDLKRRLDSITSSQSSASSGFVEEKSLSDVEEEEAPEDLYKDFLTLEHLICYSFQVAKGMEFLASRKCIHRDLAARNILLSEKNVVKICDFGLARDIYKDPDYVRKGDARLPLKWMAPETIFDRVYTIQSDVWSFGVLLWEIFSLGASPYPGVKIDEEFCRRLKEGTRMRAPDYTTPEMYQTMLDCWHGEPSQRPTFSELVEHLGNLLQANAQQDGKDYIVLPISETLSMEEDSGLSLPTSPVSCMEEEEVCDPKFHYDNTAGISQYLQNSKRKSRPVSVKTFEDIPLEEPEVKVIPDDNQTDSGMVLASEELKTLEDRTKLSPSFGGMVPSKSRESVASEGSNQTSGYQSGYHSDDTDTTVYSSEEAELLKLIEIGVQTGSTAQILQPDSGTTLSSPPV

In the case of `C=CC(=O)N1CCC(Sc2nc(Nc3ncc(C#N)s3)cc(N3CCN(C)CC3)n2)CC1` [II-2, 2-(2-(1-Acryloylpiperidin-4-ylthio)-6-(4-methylpiperazin-1-yl)pyrimidin-4-ylamino)thiazole-5-carbonitrile], the “MH+ of compound-modified tryptic peptide (ICDFGLAR) of KDR” value (KDR) was 1364.63 and the pIC50 (BTK) was 9.24.
